Data: patent US9730906B2, “α-derivatives of cis-monounsaturated fatty acids for use as medicines” (UNIVERSITAT DE LES ILLES BALEARS, priority 2008, dated 2017)

Legend:
[1] = test system: A549 cells of human lung adenocarcinoma; test: Prevention of tumour development in nude mice injected with A549 cells; type: in vivo; settings: 400 mg/kg per day oral, 2 weeks before and one month after A549 injection, compared with fatty acids not of Formula I, p<0.05
Text: FIG. 2. Preventative effect of various fatty acids against tumour development. […] Animals received treatment before injection of tumour cells and the treatment was subsequently maintained. Animals of the control group were not treated and the volume of their tumours was taken as the reference value (100%).
To determine whether the fatty acids of the invention have applications in the prevention of the development of tumour processes, an animal cancer model was used. This model consisted of immune-deprived animals ([Crl:Nu(Ico)-Fox 1] nude mice in which non-microcytic human lung cancer cells were injected (5×10^6 A549 cells per animal). The control group (infected with cancer cells but untreated) started to develop tumours that were visible after a few days. The sizes of the tumours were measured for the first time at 10 days after implanting the tumour and measurements continued for up to 31 days after the implantation with a digital calliper. The volume of the tumours was calculated with the following equation: v=w^2×l/2 where v is the volume of the tumour, w is its width and l is the length. Preventative treatments against development of the cancer were applied. To carry out these treatments, 400 mg/kg were administered per day for 2 weeks before the injection of tumour cells. This treatment was continued for one month after the implantation of the tumour cells and the volume of the tumours in the animals was measured. Each experimental group was composed of 8 animals. Oral administration of α-derivatives of cis-monounsaturated fatty acids prevented cancer development (A549 cells of human lung adenocarcinoma) (FIG. 2). […] Therefore it was concluded that the introduction of a double bond in the cis configuration in the structure of the fatty acid is a critical factor in the prevention and treatment by fatty acids of cancer development.

[2] = test system: A549 cells; test: Growth/viability of A549 lung cancer cells in culture (cell count); type: cell-based, human; settings: Doses of 200 to 400 μM, A549
Description: FIG. 3A. Cancer cells (A549) were treated with various concentrations of OHOD and MOD11 to determine whether the effect was dependent on the concentration. […] These cells were treated with different concentrations (0-400 μM) of OHOD and MOD11 and the number of cells was determined by flow cytometry.
FIG. 3B. Cancer cells (A549) were treated with compounds indicated on the horizontal axis for 48 hours at 150 μM. Then, the cells were counted and their number and percent of untreated (control) represented on the vertical axis.
Also, a series of α-derivatives of cis-monounsaturated fatty acids were used to investigate their effectiveness in cancer treatment. Two types of experiment were performed. Firstly, the dependency of the anti-tumour effect on concentration was investigated. To perform these experiments, human lung cancer cells (A549) were cultivated in RPMI medium, supplemented with 10% foetal bovine […], 10 mM Hepes (pH 7.4), 2 mM glutamine, 2 g/l bicarbonate, 1 g/l glucose, 100 units/ml penicillin, 0.1 mg/ml streptomycin, 0.25 μg/ml Amphotericin B, at 37° C. and in the presence of 5% CO2. In a first experimental series, these cells were treated with various concentrations (0-400 μM) of OHOD and MOD11 and the number of cells was determined by flow cytometry (FIG. 3A). […] In a second series, the anti-tumour effectiveness on A549 lung cancer cells was investigated at a single concentration (150 μM) and a time of 48 hours (FIG. 3B). […] Obviously, among the previous molecules, some lacked both modifications on the α-carbon and the double bond in cis configuration (EO, HDO, ODO) and had no therapeutic effect. […]

[3] = Rat obesity induced by cafeteria diet, preventative pre-treatment (Table 3); type: in vivo, Wistar Kyoto rats; settings: 300 mg/kg oral, after two weeks on cafeteria diet; obese control 308 ± 17, lean control 280 ± 16; * lower than obese controls, ‡ indistinguishable
Description: In a further experiment, the effect of various molecules at a single dose (600 mg/kg) was investigated. […] In this sense, modification on the α-carbon and the double bond in cis configuration are crucial elements for producing the therapeutic effect indicated above. […] Finally, the effect of α-derivatives of cis-monounsaturated fatty acids on the prevention of obesity was investigated. For this, a model of rat obesity induced by a cafeteria diet, where the hypercaloric food increases the weight of the animals very markedly, was used. There were various experimental groups (see Table 3), each of which consisted of 6 female Wistar Kyoto rats of 250-300 g in weight. All the animals received a standard diet for 2 weeks. In addition, 2 of the groups received an oral preventative pre-treatment of vehicle and the other groups received 300 mg/kg of the fatty acids indicated below. Afterwards, one of the control groups was maintained on a standard diet (lean control) and the other was fed on a cafeteria diet (obese control). The treated animal groups were fed on the cafeteria diet. Preventative pre-treatment was maintained for all the groups. After two weeks on these diets, the lean control group had increased their body weight by an average of 16±16 g, while the obese control group had increased their body weight by an average of 43±17 g (statistically significance difference, p<0.01).
The weight of treated animals was statistically less than the weight of obese control rats and statistically indistinguishable from that of lean control rats.

[4] = target: T1, cyclooxygenases-1 (COX-1) (Homo sapiens, UniProt P23219); test: COX-1 activity in U937 differentiated monocytes (Cayman COX-1 inhibitor screening system); type: cell-based; settings: 250 μM, 6 hours; compared with fatty acids not of Formula I, p<0.05
T1 construct: endogenous in cells; host or cells: U937 differentiated monocytes
Description: FIG. 19A. Effect of various fatty acids in the inhibition of the activity of cyclooxygenases-1 (COX-1) (Cayman COX-1 inhibitor screening system). […] Cell cultures (U937 differentiated monocytes) were treated with the fatty acids of the invention (250 μM, 6 hours).
(§1) In an additional study on the release of various proinflammatory cytokines (IL-1b, IL-6, IL-8, IL-10) and TNF-α in U937 monocytes stimulated with bacterial lipopolysaccharide (LPS), a marked reduction in the levels of these molecules was observed after treatments with OHHD at a concentration of 250 μM and 72 h incubation (Table 4). The effect of the α-derivatives of cis-monounsaturated fatty acids (250 μM, 6 h) on the activity and expression of the COX-1 and COX-2 cyclooxygenases was investigated in the same system.

[5] = test system: cyclooxygenase-2 (COX-2); test: Cellular concentration of COX-2 in U937 differentiated monocytes (immunoblot); type: cell-based, human; settings: 250 μM, 6 hours; compared with fatty acids not of Formula I, p<0.05
Description: FIG. 19B. Effect of various fatty acids in the inhibition (concentration of protein) of cyclooxygenase-2 (immunoblot of COX-2). […] Cell cultures (U937 differentiated monocytes) were treated with the fatty acids of the invention (250 μM, 6 hours).
as §1

T1 sequence (P23219 24-599): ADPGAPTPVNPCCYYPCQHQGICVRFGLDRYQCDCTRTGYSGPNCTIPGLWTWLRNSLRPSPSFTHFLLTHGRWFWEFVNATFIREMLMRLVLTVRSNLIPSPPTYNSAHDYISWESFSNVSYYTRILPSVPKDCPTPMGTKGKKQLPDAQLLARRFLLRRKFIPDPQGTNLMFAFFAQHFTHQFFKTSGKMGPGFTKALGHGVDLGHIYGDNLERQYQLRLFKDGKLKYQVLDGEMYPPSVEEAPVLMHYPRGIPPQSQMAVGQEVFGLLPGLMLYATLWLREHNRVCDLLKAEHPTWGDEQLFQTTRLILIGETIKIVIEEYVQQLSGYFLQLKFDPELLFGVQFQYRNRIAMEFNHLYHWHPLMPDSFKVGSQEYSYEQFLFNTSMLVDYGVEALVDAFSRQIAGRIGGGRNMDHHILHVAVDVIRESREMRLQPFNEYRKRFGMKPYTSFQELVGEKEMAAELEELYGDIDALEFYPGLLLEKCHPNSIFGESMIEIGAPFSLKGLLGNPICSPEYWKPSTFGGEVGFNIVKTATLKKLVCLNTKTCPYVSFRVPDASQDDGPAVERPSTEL

Compound | inhibition of COX-1 activity (% of control) [4] | cellular concentration of COX-2 (% of control) [5] | tumour volume (prevention of tumour development) [1] | effect on tumour cells at 200 to 400 μM [2] | Final weight [3]
CCCCCC/C=C\CCCCCCCCC(C)C(=O)O (stereo not drawn) [MOD11, α-Methyl-cis-Δ11-octadecenoic] | more significant effect | more significant effect | more significant effect | total elimination of tumour cells | 274 ± 18* g
CCCCCCCC/C=C\CCCCCCC(N)C(=O)O (stereo not drawn) [AOD, α-Amino-cis-Δ9-octadecenoic] | more significant effect | more significant effect | more significant effect | – | 272 ± 15* g
CCCCCCCC/C=C\CCCCCCCCC(O)C(=O)O (stereo not drawn) [OHEE, α-Hydroxy-cis-Δ11-eicosenoic] | more significant effect | more significant effect | more significant effect | – | 264 ± 11* g
CCCCCCCC/C=C\CCCCCCCCCCC(O)C(=O)O (stereo not drawn) [OHDE, α-Hydroxy-cis-Δ13-docosenoic] | more significant effect | more significant effect | more significant effect | – | 273 ± 15* g

More lines, main results first:

inhibition of COX-1 activity (% of control) [4] | cellular concentration of COX-2 (% of control) [5] | Compound | tumour volume (prevention of tumour development) [1] | effect on tumour cells at 200 to 400 μM [2] | Final weight [3]
more significant effect | more significant effect | CCCCCC/C=C\CCCCCCCCC(O)C(=O)O (stereo not drawn) [OHOD11, α-Hydroxy-cis-Δ11-octadecenoic] | more significant effect | – | 269 ± 12* g
more significant effect | more significant effect | CCCCCCCC/C=C\CCCCCCC(C)C(=O)O (stereo not drawn) [MOD, α-Methyl-cis-Δ9-octadecenoic] | more significant effect | – | 268 ± 12* g
more significant effect | more significant effect | CCCCCCCC/C=C\CCCCCCC(F)C(=O)O (stereo not drawn) [FOD, α-Fluoro-cis-Δ9-octadecenoic] | more significant effect | – | 279 ± 13* g
more significant effect | more significant effect | CCCCCCC/C=C\CCCCCCCC(S)C(=O)O (stereo not drawn) [SHOD, α-Mercapto-cis-Δ10-octadecenoic] | more significant effect | – | 269 ± 16* g
more significant effect | more significant effect | CCCCCCCC/C=C\CCCCCCC(C(=O)O)C(F)(F)F (stereo not drawn) [TFMOD, α-Trifluoromethyl-cis-Δ9-octadecenoic] | more significant effect | – | 278 ± 14* g
